How the values were obtained:
[1] = test system: MC38 tumor; assay: CD31+ micro-blood vessel count in MC38 tumor sections (IHC, angiogenesis); assay type: in vivo, mice; conditions: MC38 tumor harvested after 20 days of tumor inoculation
Method: FIG. 6 depicts that 5-HTR2B signalling in colon cancer affects cell proliferation and viability: Colon cancer MC38 cells were treated with serotonin (100 μM), 5-HTR2B agonist (BW-723C86; 50 μM), or 5-HTR2B antagonist (SB-215505; 50 μM) for 48 hours, and cell cycle analysis was performed by propidium iodide staining using flow cytometry. MC38 cells were also treated with a graded dose of 5-HTR2B agonist (BW-723C86) or serotonin. MTT assay was performed to measure cell viability. (A) After treatment with 5-HTR2B agonist BW-723C86, serotonin, or 5-HTR2B antagonist SB-215505, the relative cell cycle analysis is shown. (B) Relative cell viability data of MC38 cells following treatment of graded doses of 5-HTR2B agonist BW-723C86 or serotonin are shown. The data shown are representative of one of the three independent experiments. (C) MC38 tumor sections from the control tumor and 5-HTR2B antagonist treated tumor were stained for CD31 and the number of CD31^+ micro-blood vessels/mm^2 of tissue sections was counted and plotted to observe angiogenesis. […]
For fluorescence-based immunohistochemical staining, tissues were embedded in OCT tissue freezing media (Fisher Scientific) and stored at −80° C. […] The images were captured using Olympus FV3000 confocal microscope (Waltham, Massachusetts), and the images were analysed using Cellsens software (Olympus; Waltham, Massachusetts). […]

[2] = test system: 4T1-Luc2 cells; assay: 4T1-Luc2 breast cancer model, tumor volume; assay type: in vivo, BALB/c mice; conditions: RS-127445 2 mg/kg/day + paclitaxel 2 mg/kg/alternate days; 4T1-luc2 model (FIG. 16A)
Method: FIG. 7 depicts that antagonizing the 5-HTR2B in mice inhibits breast and colon tumor growth: (A) MC38 colon cancer cells were injected subcutaneously into the right flank of C57BL/6 mice. […] Tumor volumes were measured and plotted. (B) MC38 colon cancer cells were injected subcutaneously into the right flank of C57BL/6 mice. After seven days when tumors became palpable, one group was treated with 5-HTR7 antagonist SB-269970 (n=6 mice; 3 mg/kg/day) or left untreated (n=6 mice). Tumor volume was measured and plotted. (C) After seven days of the setting of tumor growth, one group was treated with a serotonin transporter blocker (SSRI) sertraline hydrochloride (n=6 mice; 15 mg/kg/week) or left untreated (n=6 mice). Tumor volume was measured and plotted. (D) C57BL/6 mice were given subcutaneously injected MC38 cells. After seven days of tumor growth, one group of mice was treated with different doses of 5-HTR2B antagonist SB-215505 (n=6). Tumor volume was measured and plotted. […] Tumor volume was measured and plotted. […] Tumor growth was measured and plotted. […] Tumour volumes were measured and plotted. […] Tumour volumes were measured and plotted. […]
FIG. 16 depicts the effect of the 5-HTR2B antagonist on the FDA-approved chemotherapy drug treatment: (A) BALB/C mice were inoculated with 4T1-Luc2 cells in the mammary fat pad. […] Tumor volume was measured and plotted. […]

## CC(C)c1cc(-c2ccc(F)c3ccccc23)nc(N)n1 [RS-127445]
[1]
  number of CD31+ micro-blood vessels/mm^2 in the tumor area: reduced the number of micro-blood vessels/mm^2
[2]
  tumor growth, combination with paclitaxel: much better response by reducing tumor growth than any of them alone
